One assay concerns the target T1, α2A receptor (Homo sapiens, UniProt P08913).
T1 construct: host or cells: LM(tk-) cells, line L-α2A
T1 sequence (P08913 1-465): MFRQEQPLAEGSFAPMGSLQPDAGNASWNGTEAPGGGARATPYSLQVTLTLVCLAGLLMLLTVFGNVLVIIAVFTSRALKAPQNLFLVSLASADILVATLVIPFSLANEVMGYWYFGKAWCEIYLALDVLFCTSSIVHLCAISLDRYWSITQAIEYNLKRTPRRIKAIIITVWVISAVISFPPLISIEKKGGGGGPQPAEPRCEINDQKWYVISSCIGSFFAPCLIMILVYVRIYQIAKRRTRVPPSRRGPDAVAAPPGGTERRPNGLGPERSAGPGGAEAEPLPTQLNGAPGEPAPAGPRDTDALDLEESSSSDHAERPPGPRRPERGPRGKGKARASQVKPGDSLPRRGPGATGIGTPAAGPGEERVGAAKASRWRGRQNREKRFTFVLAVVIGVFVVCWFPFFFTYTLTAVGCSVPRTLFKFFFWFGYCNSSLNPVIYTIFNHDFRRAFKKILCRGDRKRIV
As to the kind of experiment: Competition binding, [3H]rauwolscine, human α2A receptor. An outline of the steps:
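Equilibrium displacement of [3H]rauwolscine (0.5 nM) measured on membranes from stably transfected LM(tk−) lines, one per α2 subtype, in glycylglycine buffer at pH 7.6. Nonspecific binding set by 10 μM phentolamine; separation by filtration.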

A further assay addresses T2, L-type calcium channel (Rattus norvegicus, UniProt P22002).
T2 construct: membrane fragments of rat cardiac muscle; from tissue; host or cells: rat cardiac muscle membranes
Description: Competition binding of [3H]nitrendipine to membrane fragments of rat cardiac muscle.

Assay [1] addresses T3, α1A Human Adrenergic Receptor (Homo sapiens, UniProt P25100).
T3 construct: The entire coding region of α1A (1719 bp); expressed in transfected cells
T3 sequence (P25100 1-572): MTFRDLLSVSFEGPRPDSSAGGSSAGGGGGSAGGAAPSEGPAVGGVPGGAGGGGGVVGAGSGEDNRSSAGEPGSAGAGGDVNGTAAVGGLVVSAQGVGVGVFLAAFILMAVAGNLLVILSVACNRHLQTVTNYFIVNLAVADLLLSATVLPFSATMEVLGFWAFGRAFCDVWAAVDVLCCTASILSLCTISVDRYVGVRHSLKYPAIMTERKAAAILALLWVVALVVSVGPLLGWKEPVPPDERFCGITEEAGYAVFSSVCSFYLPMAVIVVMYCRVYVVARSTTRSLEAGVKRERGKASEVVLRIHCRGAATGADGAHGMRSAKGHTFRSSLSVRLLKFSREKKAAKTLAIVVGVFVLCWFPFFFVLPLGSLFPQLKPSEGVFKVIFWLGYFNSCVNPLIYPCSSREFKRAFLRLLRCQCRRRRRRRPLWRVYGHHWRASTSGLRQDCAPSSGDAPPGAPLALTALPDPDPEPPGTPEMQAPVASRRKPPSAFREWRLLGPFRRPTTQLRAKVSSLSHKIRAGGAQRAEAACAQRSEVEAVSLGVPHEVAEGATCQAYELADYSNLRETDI
As to the kind of experiment: Radioligand binding, [3H]prazosin, cloned human α1A adrenergic receptor. An outline of the steps:
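Binding of [3H]prazosin (0.5 nM) was measured at 37° C over 20 min in pH 7.5 Tris/MgCl2/ascorbate buffer, using membrane preparations of LM(tk−) cells expressing cloned human α1A receptor. Filtration through GF/B filters stopped the reaction. 10 μM phentolamine gave nonspecific binding.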

Where [2] appears, read: [3H]rauwolscine, LM(tk-) cell line L-α2A, SEM and n in lines below, read-out: pKi alpha-2 2a (converted).
[3] abbreviates: [3H]nitrendipine, rat cardiac muscle membranes, SEM and n in lines below, read-out: pKi Ca (converted).
[4] abbreviates: [3H]prazosin, cloned human receptor in LM(tk-) cell membranes, SEM and n in lines below, read-out: pKi alpha-1 1a (converted).
The mark [5] stands for this setting: [3H]rauwolscine, human receptor, LM(tk-) cell lysates, mean, read-out: PKi alpha-2 2a (converted).
[6] abbreviates: [3H]nitrendipine, rat cardiac muscle membranes, mean, read-out: PKi Ca (converted).
[7] abbreviates: [3H]prazosin, cloned human receptor, LM(tk-) cell membranes, mean, read-out: PKi alpha-1 1a (converted).
[8] abbreviates: [3H]rauwolscine, human α2A receptor, LM(tk−) cells.
[9] abbreviates: [3H]nitrendipine, rat cardiac muscle membrane fragments, L-type calcium channel.
The mark [10] stands for this setting: [3H]prazosin, cloned human α1A receptor, LM(tk−) cell membranes.

The results in this text go back to patent publication US6608086B2, “Dihydropyridines and new uses thereof” (Synaptic Pharmaceutical Corporation, priority 1993, dated 2003).

Where a name gives a salt, the structure may show the parent alone. Read-outs that look alike come from different tables or passages of the source.

T2 sequence (P22002 whole entry, other chains not shown, the tested form may be a part): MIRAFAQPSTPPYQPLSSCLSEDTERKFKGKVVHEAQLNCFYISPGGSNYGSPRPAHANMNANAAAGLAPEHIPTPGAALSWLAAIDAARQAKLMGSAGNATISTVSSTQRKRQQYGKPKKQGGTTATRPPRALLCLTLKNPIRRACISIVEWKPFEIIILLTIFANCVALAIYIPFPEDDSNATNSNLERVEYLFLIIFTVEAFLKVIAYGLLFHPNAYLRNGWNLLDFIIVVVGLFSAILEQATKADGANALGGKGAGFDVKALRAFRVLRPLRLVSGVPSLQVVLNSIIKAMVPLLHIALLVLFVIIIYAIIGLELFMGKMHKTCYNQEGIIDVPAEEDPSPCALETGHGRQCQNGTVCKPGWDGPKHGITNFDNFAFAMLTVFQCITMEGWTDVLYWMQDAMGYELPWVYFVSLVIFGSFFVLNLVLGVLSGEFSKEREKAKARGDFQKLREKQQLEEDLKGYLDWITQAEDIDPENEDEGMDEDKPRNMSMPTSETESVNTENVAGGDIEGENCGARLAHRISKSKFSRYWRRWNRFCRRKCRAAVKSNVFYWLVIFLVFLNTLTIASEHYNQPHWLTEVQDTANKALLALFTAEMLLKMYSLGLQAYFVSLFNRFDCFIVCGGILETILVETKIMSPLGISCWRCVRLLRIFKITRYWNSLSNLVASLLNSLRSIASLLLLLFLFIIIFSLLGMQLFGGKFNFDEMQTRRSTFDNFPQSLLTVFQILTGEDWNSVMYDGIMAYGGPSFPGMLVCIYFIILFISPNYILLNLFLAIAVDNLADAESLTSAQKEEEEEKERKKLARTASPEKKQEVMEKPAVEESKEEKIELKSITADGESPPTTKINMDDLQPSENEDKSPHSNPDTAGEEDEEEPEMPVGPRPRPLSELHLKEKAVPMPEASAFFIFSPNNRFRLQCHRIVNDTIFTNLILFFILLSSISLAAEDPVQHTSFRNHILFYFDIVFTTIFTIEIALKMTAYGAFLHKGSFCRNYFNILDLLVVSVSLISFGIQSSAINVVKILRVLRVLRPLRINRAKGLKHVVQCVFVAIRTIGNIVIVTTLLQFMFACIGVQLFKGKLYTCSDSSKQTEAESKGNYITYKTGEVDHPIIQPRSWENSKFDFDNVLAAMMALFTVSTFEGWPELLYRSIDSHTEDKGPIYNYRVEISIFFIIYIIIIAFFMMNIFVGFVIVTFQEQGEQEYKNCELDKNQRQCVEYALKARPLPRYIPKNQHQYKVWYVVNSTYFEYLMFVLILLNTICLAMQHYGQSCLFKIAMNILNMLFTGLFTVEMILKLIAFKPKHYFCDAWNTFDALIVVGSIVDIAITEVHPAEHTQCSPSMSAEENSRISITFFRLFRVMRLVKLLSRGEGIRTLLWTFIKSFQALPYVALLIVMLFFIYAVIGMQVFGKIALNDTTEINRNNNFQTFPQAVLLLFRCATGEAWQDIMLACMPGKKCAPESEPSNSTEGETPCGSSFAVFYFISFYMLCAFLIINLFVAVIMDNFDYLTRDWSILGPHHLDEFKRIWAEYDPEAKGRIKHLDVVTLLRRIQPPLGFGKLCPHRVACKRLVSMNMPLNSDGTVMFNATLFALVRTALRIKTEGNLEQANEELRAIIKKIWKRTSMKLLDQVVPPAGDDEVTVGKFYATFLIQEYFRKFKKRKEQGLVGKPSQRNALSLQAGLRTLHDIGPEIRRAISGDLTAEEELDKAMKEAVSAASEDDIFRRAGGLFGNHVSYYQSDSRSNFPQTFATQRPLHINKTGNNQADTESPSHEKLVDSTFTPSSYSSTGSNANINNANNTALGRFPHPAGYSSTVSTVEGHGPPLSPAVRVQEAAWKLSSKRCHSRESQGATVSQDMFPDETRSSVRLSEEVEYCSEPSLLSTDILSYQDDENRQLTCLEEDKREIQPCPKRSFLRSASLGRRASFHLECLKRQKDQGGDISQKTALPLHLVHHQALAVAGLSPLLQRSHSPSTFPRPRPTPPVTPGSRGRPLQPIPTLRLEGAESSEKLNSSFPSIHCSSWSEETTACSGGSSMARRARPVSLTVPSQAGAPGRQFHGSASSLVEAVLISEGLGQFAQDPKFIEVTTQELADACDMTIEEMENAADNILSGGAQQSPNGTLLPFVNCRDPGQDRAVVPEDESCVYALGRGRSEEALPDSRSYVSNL
T2 sequence (P54290 25-944 partner limits assumed, other chains not shown): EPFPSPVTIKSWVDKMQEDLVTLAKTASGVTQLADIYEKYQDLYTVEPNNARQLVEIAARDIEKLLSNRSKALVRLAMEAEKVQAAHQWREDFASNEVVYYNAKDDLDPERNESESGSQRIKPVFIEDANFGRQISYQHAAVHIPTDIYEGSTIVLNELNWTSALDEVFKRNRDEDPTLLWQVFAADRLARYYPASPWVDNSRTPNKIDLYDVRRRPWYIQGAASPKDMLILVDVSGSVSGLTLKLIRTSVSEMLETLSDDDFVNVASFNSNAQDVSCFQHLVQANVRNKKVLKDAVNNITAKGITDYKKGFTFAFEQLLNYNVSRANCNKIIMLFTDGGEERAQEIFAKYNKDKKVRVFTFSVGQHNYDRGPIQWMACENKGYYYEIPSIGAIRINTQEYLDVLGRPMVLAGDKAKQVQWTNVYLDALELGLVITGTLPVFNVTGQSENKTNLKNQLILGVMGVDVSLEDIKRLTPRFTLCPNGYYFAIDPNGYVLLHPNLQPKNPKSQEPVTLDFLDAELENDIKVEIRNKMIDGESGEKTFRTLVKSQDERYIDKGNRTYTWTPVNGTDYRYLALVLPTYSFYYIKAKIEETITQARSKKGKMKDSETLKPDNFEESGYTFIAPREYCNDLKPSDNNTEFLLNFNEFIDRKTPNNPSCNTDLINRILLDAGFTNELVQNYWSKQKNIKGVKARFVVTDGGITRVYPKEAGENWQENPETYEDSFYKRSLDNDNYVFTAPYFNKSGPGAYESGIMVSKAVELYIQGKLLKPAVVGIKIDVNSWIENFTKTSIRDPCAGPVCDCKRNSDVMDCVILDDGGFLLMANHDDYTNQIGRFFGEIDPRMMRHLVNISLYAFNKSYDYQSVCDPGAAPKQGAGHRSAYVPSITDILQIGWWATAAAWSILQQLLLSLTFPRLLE
T2 sequence (P54290 945-1091 partner limits assumed, other chains not shown): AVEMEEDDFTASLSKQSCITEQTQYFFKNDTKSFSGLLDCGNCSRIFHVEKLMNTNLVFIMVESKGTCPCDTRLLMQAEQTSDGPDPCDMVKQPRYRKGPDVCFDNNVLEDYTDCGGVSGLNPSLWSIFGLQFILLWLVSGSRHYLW

As to `COC(=O)C1=C(C)NC(C)=C(C(=O)NCCCN2CCC(c3ccccc3)CC2)C1c1ccc([N+](=O)[O-])cc1` (single isomer, unassigned; (-)) [(−)-45, 1,4-Dihydro-3-methoxycarbonyl-2,6-dimethyl-4-(4-nitrophenyl)-5-{N-[3-(4-phenylpiperidin-1-yl)propyl]}carboxamidopyridine hydrochloride hemihydrate], the Ki on α2A receptor (setting [2]) was 0.339 µM; on L-type calcium channel (setting [3]), 4.37 µM; in assay [1] (setting [4]), 0.0407 µM.

For `COC(=O)C1=C(C)NC(C)=C(C(=O)NCCCN2CCCCC2)C1c1ccc([N+](=O)[O-])cc1` (stereo not drawn) [Example 51, 1,4-Dihydro-3-methoxycarbonyl-2,6-dimethyl-4-(4-nitrophenyl)-5-{N-[3-(piperidin-1-yl)propyl]}carboxamidopyridine hydrochloride etherate], the Ki was 0.447 µM at α2A receptor (setting [2]), 1000 µM on L-type calcium channel (setting [3]) and 9.77 µM in assay [1] (setting [4]).

With `CCC1=C(C(N)=O)C(c2ccc([N+](=O)[O-])cc2)C(C(=O)NCCCN2CCC(C(=O)OC)(c3ccccc3)CC2)=C(COCCN)N1` (stereo not drawn) [Example 234, 2-((2-Aminoethyl)oxy)methyl-5-carboxamido-6-ethyl-1,4-dihydro-3-(N-(3-(4-methoxycarbonyl-4-phenylpiperidin-1-yl)propyl)) carboxamido-4-(4-nitro)phenylpyridine], the Ki at α2A receptor (setting [5]) was 1.23 µM; at L-type calcium channel (setting [6]), 398 µM; in assay [1] (setting [7]) it was 2.75 µM.

For the compound `CNC(=O)C1=C(C)NC(C)=C(C(=O)NCCCN2CCC(c3ccccc3)(c3ccccc3)CC2)C1c1ccc([N+](=O)[O-])cc1` (stereo not drawn) [Example 38, 1,4-Dihydro-2,6-dimethyl-5-(N-methyl)carboxamido-4-(4-nitrophenyl)-3-{N-[3-(4,4-diphenylpiperidin-1-yl)propyl]}carboxamidopyridine], the “pKi alpha-2 2a” value on α2A receptor was 6.40. Moreover, the Ki on L-type calcium channel (pKi Ca) is 7.08 µM. Moreover, in assay [1], the “pKi alpha-1 1a” value worked out at 6.21.

In the case of `CCOC(=O)C1=C(CNCCCN2CCC(c3ccccc3)(c3ccccc3)CC2)NC(C)=C(C(=O)OC)C1c1ccc([N+](=O)[O-])cc1.Cl.O` (stereo not drawn) [Example 90, 3-Ethoxycarbonyl-1,4-dihydro-5-methoxycarbonyl-6-methyl-4-(4-nitro)phenyl-2-(N-(3-(4,4,-diphenylpiperidin-1-yl)propyl)amino)methylpyridine, hydrochloride hydrate], the “pKi alpha-2 2a” value at α2A receptor (setting [8]) is given as 6.13. Besides, on L-type calcium channel (setting [9]), the “pKi Ca” value amounted to 6.63. For the same compound, the “pKi alpha-1 1a” value in assay [1] (setting [10]) worked out at 6.52.

As to `CCC1=C(C(N)=O)C(c2ccc([N+](=O)[O-])cc2)C(C(=O)NC2CCN(CCc3c[nH]c4ccccc34)CC2)=CN1CC` (stereo not drawn) [Example 122, 5-Carboxamido-1,4-dihydro-3-(N-{1-[2-(3-indolyl)ethyl]piperidin-4-yl}) carboxamido-1,6-diethyl-4-(4-nitrophenyl)pyridine], the “pKi alpha-2 2a” value at α2A receptor (setting [8]) was determined as 6.38. The “pKi Ca” value on L-type calcium channel (setting [9]) stood at 3. Also, in assay [1] (setting [10]), the “pKi alpha-1 1a” value came out at 6.62.

Regarding `CC1=C(C(N)=O)C(c2cccc([N+](=O)[O-])c2)C(C(=O)NCCCN2CCC(c3ccccc3)CC2)=C(C)N1` (stereo not drawn) [Example 62], the figures for the Ki (at α2A receptor (setting [2]); on L-type calcium channel (setting [3]); in assay [1] (setting [4])) were 0.0245 µM, 19.5 µM and 0.339 µM, respectively.

On to `COC(=O)C1=C(C)NC2=C(C(=O)N(CCCN3CCC(c4ccccc4)(c4ccccc4)CC3)C2)C1c1ccc([N+](=O)[O-])cc1.Cl.O` (stereo not drawn) [Example 91, 1,4,7,7-Tetrahydro-3-methoxycarbonyl-6-methyl-5-oxo-4-(4-nitrophenyl)-6-(3-(4,4-diphenylpiperidin-1-yl)) propylpyrrolo[3,4-b]pyridine, hydrochloride hydrate], for which the “pKi alpha-2 2a” value at α2A receptor (setting [8]) is 6.06. Besides, on L-type calcium channel (setting [9]), the “pKi Ca” value is on record as 6.55. For the same compound, the “pKi alpha-1 1a” value in assay [1] (setting [10]) is listed as 6.29.

Turning to `CCC1=C(C(=O)NCCCCN2CCC(c3ccccc3)CC2)C(c2ccc([N+](=O)[O-])cc2)C(C(N)=O)=C(C)N1.Cl.O` (stereo not drawn) [Example 77, 5-Carboxamido-2-ethyl-1,4-dihydro-6-methyl-4-(4-nitro)phenyl-3-(N-(4-(4-phenylpiperidin-1-yl)butyl))carboxamidopyridine hydrochloride hydrate], on α2A receptor ([3H]rauwolscine, LM(tk-) cell line L-α2A, SEM and n in lines below), the “pKi alpha-2 2a” value came to 6.95. In addition, the “pKi Ca” value on L-type calcium channel ([3H]nitrendipine, rat cardiac muscle membranes, SEM and n in lines below) is listed as 5.94. For the same compound, the “pKi alpha-1 1a” value in assay [1] ([3H]prazosin, cloned human receptor in LM(tk-) cell membranes, SEM and n in lines below) turned out to be 6.83.

`COC(=O)C1=C(C)NC(C)=C(C(=O)OCCCN2CCCCC2)C1c1ccc([N+](=O)[O-])cc1` (stereo not drawn) [Example 50, 1,4-Dihydro-5-methoxycarbonyl-2,6-dimethyl-4-(4-nitrophenyl)-3-[3-(piperidin-1-yl)propoxy]carbonylpyridine hydrochloride etherate]: the Ki was 1.51 µM on α2A receptor (setting [2]), 9.55 µM on L-type calcium channel (setting [3]) and 1.95 µM in assay [1] (setting [4]).

On to `CCC1=C(C(N)=O)C(c2ccc([N+](=O)[O-])cc2)C(C(=O)NCCCN2CCC(C(=O)OC)(c3ccccc3)CC2)=C(CCCCN)N1` (stereo not drawn) [Example 166, 2-(4-Aminobutyl)-5-carboxamido-6-ethyl-1,4-dihydro-3-{N-[3-(4-methoxycarbonyl-4-phenylpiperidin-1-yl)propyl]}carboxamido-4-(4-nitrophenyl)pyridine], for which the figures for the Ki (at α2A receptor (setting [5]); on L-type calcium channel (setting [6]); in assay [1] (setting [7])) were 1.86 µM, 132 µM and 2.34 µM, respectively.

With `CCC1=C(C(=O)NC)C(c2ccc([N+](=O)[O-])cc2)C(C(=O)NCCCN2CCC(c3ccccc3)(c3ccccc3)CC2)=C(COCCN)N1` (stereo not drawn) [Example 225, 2-((2-Aminoethyl)oxy)methyl-6-ethyl-1,4-dihydro-5-N-methylcarboxamido-4-(4-nitro)phenyl-3-(3-(N-(4,4-diphenylpiperidin-1-yl)propyl))carboxamidopyridine], the Ki at α2A receptor was 2.04 µM; on L-type calcium channel (PKi Ca), 2.57 µM; in assay [1] (PKi alpha-1 1a) it was 1.62 µM.

Consider `COC(=O)C1=C(C)NC(c2ccoc2)=C(C(=O)NCCCN2CCC(c3ccccc3)CC2)C1c1ccc([N+](=O)[O-])cc1` (stereo not drawn) [Example 65, 2-(Furan-3-yl)-1,4-dihydro-5-methoxycarbonyl-6-methyl-4-(4-nitrophenyl)-5-{N-[3-(4-phenylpiperidin-1-yl)propyl]}carboxamidopyridine hydrochloride hydrate], for which the results for the Ki (on α2A receptor (setting [2]); at L-type calcium channel (setting [3]); in assay [1] (setting [4])) were 0.2 µM, 3.09 µM and 0.129 µM, respectively.

On to `COC(=O)C1=C(C)NC(C)=C(C(=O)NCCCN2CCC(c3ccccc3)CC2)C1c1ccc([N+](=O)[O-])cc1` (racemic) [(±)-45, (±)-1,4-Dihydro-3-methoxycarbonyl-2,6-dimethyl-4-(4-nitrophenyl)-5-{N-[3-(4-phenylpiperidin-1-yl)propyl]}carboxamidopyridine hydrochloride hemihydrate], for which the Ki is 0.282 µM at α2A receptor (setting [2]), 7.41 µM at L-type calcium channel (setting [3]) and 0.0661 µM in assay [1] (setting [4]).

Turning to `COC(=O)C1=C(C)NC(C)=C(C(=O)NCCCN2CCC(c3ccccc3)(c3ccccc3)CC2)C1c1cccc([N+](=O)[O-])c1` (stereo not drawn) [Example 249, 1,4-Dihydro-3-methoxycarbonyl-2,6-dimethyl-4-(3-nitrophenyl)-5-(N-(3-(4,4-diphenylpiperidin-1-yl)propyl)carboxamido)-pyridine], the “PKi alpha-2 2a” value at α2A receptor is reported as 5.81. Also, the Ki on L-type calcium channel (PKi Ca) is 0.0309 µM. Also, the “PKi alpha-1 1a” value in assay [1] worked out at 6.37.
